Measurements: US20060142374A1, “Crystal for oral solid drug and oral solid drug for dysuria treatment containing the same” (KISSEI PHARMACEUTICAL CO., LTD., priority 2002, published 2006)

Experiments:
Format in all cases: physicochemical
[1] = Stability to light on preservation; settings: content of active ingredient decreases depending on preserved condition with time
[2] = Stability test (appearance by naked eye, purity by liquid chromatography after storage); settings: for Stability in respect of purity and appearance: summary of storage conditions 1-4
Method: Appearance and purity of each crystal obtained in Examples 1-3 and an amorphous obtained by freeze-drying a solution of KMD-3213 in dioxane were determined after allowing to stand under following conditions. As for appearance, it was determined by color and properties with the naked eye. Purity was determined by integral percentage method with liquid chromatography.
Condition 1: Allowing to stand at 40° C. in the constant temperature device for 28 days
Condition 2: Allowing to stand at 60° C. in the constant temperature device for 28 days
Condition 3: Allowing to stand at 80° C. in the constant temperature device for 25 days
Condition 4: Allowing to stand at 40° C. and relative humidity 75% in the constant temperature device for 28 days
The Liquid Chromatography Condition:
Detector: ultraviolet absorption spectrophotometer (wave length: 225 nm)
Column: Intertsil ODS-3 (GL Science, 5 μm, 4.6 mm×25 cm)
Column temperature: about 25° C.
Mobile Phase: To 3.9 g of sodium dihydrogen phosphate was added 2.5 mL of diluted phosphoric acid solution (1→20) accurately, and water was added to make 1000 mL of a solution accurately. A 5:2 mixed solution of the resulting solution and acetonitrile.

[3] = Moisture absorption test (weight change after storage); settings: for Moisture absorption (hygroscopicity): summary, compared with the amorphous
Method: In the same manner as that of Test Example 1, the crystals obtained in Examples 1-3 and the amorphous were used for the test. Approximately 1 g of test substance was weighed accurately and put it into a sample vial. After the test substance was allowed to stand in an opening constant temperature and humidity device under following condition, their differences of weights were measured.
Condition 1: Allowing to stand at 25° C. and 60% of relative humidity in the constant temperature and humidity device for 3 days
Condition 2: Allowing to stand at 40° C. and 75% of relative humidity in the constant temperature and humidity device for 3 days

[4] = Condition 1: 40° C. for 28 days
[5] = Condition 2: 60° C. for 28 days
[6] = Condition 3: 80° C. for 25 days
[7] = Condition 4: 40° C. and relative humidity 75% for 28 days
[8] = Initial, liquid chromatography, integral percentage method
[9] = Condition 1: 25° C. and 60% relative humidity for 3 days
[10] = Condition 2: 40° C. and 75% relative humidity for 3 days

Row | Structure (SMILES) | Stability for light [1] | Appearance [2, 4] | Purity (%) [2, 4] | Appearance [2, 5] | Purity (%) [2, 5] | Appearance [2, 6] | Purity (%) [2, 6] | Appearance [2, 7] | Purity (%) [2, 7] | Appearance ([2]; Initial) | Purity (%) [2, 8] | Change(%) of weight [3, 9] | Change(%) of weight [3, 10] | Moisture absorption (hygroscopicity) [3] | Stability in respect of purity and appearance ([2]; listed as crystal form a) | Stability in respect of purity and appearance ([2]; listed as crystal form α)
1 | C[C@H](Cc1cc2c(c(C(N)=O)c1)N(CCCO)CC2)NCCOc1ccccc1OCC(F)(F)F [γ, KMD-3213] |  | Pale yellow powder | 99.85% | Pale yellow powder | 99.84% | Pale yellow powder | 99.64% | Pale yellow powder | 99.85% | Pale yellow powder | 99.88% | 0.00% | −0.19% | absorbing moisture scarcely |  | 
2 | C[C@H](Cc1cc2c(c(C(N)=O)c1)N(CCCO)CC2)NCCOc1ccccc1OCC(F)(F)F [amorphous, KMD-3213] |  | White powder | 99.66% | Pale yellow | 99.56% | Pale yellowish | 99.53% | White powder | 99.71% | White powder | 99.79% | +1.61% | +1.31% |  |  | 

Results, then the molecule that gave them:

Row | Stability for light [1] | Appearance [2, 4] | Purity (%) [2, 4] | Appearance [2, 5] | Purity (%) [2, 5] | Appearance [2, 6] | Purity (%) [2, 6] | Appearance [2, 7] | Purity (%) [2, 7] | Appearance ([2]; Initial) | Purity (%) [2, 8] | Change(%) of weight [3, 9] | Change(%) of weight [3, 10] | Moisture absorption (hygroscopicity) [3] | Stability in respect of purity and appearance ([2]; listed as crystal form a) | Stability in respect of purity and appearance ([2]; listed as crystal form α) | Structure (SMILES)
3 | unstable for light relatively |  |  |  |  |  |  |  |  |  |  |  |  |  |  |  | C[C@H](Cc1cc2c(c(C(N)=O)c1)N(CCCO)CC2)NCCOc1ccccc1OCC(F)(F)F [KMD-3213]
4 |  | White powder | 99.84% | White powder | 99.84% | Pale yellow | 99.58% | White powder | 99.85% | White powder | 99.90% | −0.01% | −0.20% | absorbing moisture scarcely | extremely stable | the most stable | C[C@H](Cc1cc2c(c(C(N)=O)c1)N(CCCO)CC2)NCCOc1ccccc1OCC(F)(F)F [α, KMD-3213]
5 |  | Pale yellow powder | 99.73% | Pale yellowish | 99.57% | Pale brown powder | 98.42% | Pale yellow powder | 99.69% | Pale yellow powder | 99.83% | +0.07% | −0.08% | absorbing moisture scarcely |  |  | C[C@H](Cc1cc2c(c(C(N)=O)c1)N(CCCO)CC2)NCCOc1ccccc1OCC(F)(F)F [β, KMD-3213]
